Measurements taken from US20260286316A1, “METHOD OF PRODUCTION OF MODIFIED PHAGE AND METHOD OF TREATMENT USING SAME” (priority 2022, published 2026).
In brackets after ≈: the same amount, converted by molar mass.

What was measured:
S. aureus C330 = experiment: Clindamycin MIC assay (Example 2); type: cell-based; conditions: Staphylococcus aureus; strain C330
Description: (§1) The MIC of clindamycin against the S. aureus strains was assessed using the broth microdilution technique as previously described (see Wiegand et al., 2008 supra). Results were interpreted as follows: Sensitive: ≤0.2 μg/mL; Intermediate: 0.4 μg/ml; Resistant: >0.6 μg/mL. The S. aureus strains sensitive to clindamycin were selected for further tests. The MIC was performed three times.

S. aureus C43 = experiment: Clindamycin MIC assay (Example 2); type: cell-based; conditions: Staphylococcus aureus; strain C43
Description: as §1

S. aureus C319 = experiment: Clindamycin MIC assay (Example 2); type: cell-based; conditions: Staphylococcus aureus; strain C319
Description: as §1

S. aureus ATCC25923 = experiment: Clindamycin MIC assay (Example 2); type: cell-based; conditions: Staphylococcus aureus; strain ATCC25923
Description: as §1

S. aureus C285 = experiment: Clindamycin MIC assay (Example 2); type: cell-based; conditions: Staphylococcus aureus; strain C285
Description: as §1

[1] = system: phage non-sensitive S. aureus strains (C43, C330, C285 and C319); experiment: Phage and clindamycin combination treatment (OD600); type: cell-based, Staphylococcus aureus; conditions: ½ MIC clindamycin only or phage only (MOI=1), 24 hours
Source text: FIG. 6 provides graphical results showing that the combination of S. aureus phage and ½ MIC clindamycin kills non-sensitive S. aureus strains: (A) S. aureus C43 treated with APTC-SA-2 and ½ MIC clindamycin; (B) S. aureus C330 treated with APTC-SA-2 and ½ MIC clindamycin; (C) S. aureus ATCC25923 treated with APTC-SA-2 and ½ MIC clindamycin; (D) S. aureus C285 treated with APTC-SA-12 and ½ MIC clindamycin; (E) S. aureus C319 treated with APTC-SA-12 and ½ MIC clindamycin; and (F) S. aureus ATCC25923 treated with APTC-SA-12 and ½ MIC clindamycin. Significance was determined compared to untreated control. Data expressed as mean±SEM for three independent experiments. ****, p<0.0001; ns, no significant. C=clindamycin;
A phage and clindamycin synergy assay was performed using 96 well plates. In brief, selected S. aureus strains (phage non-sensitive) were grown on 1.5% TSA at 37° C. overnight. A single colony was transferred to TSB to generate a culture with a starting concentration of 5×10^5 CFU/ml. Phages were added to the bacteria culture at a MOI of 1 according to phage titers. Clindamycin was added to the cultures at ½ MIC (according to the MIC assay result). Optical density (Gorski A et al., Antibiotics (Basel) 9 (11), 2020) readings at 600 nm were recorded after 24 hours.

S. aureus ATCC51650 = experiment: Phage replication by titer; type: cell-based, Staphylococcus aureus; conditions: 48 hours incubation
Description: (§2) Phage titers were determined against S. aureus RN4220 (ATCC) using the double layer spot assay technique. Briefly, 100 μl of a S. aureus overnight culture was mixed with 4 mL of 0.4% TSA and poured onto a 1.5% TSA plate. […] After the plates were incubated in a humidified incubator at 37° C. overnight, plaques were counted, counts were averaged, and titers of the filtrate were calculated based on the dilution.
(§3) A 100 μl sample was taken from an S. aureus culture (10 ml in TSB) after 0 and 48 hours following treatment with clindamycin, phage or a phage clindamycin co-incubation. The sample was treated with 25 μl of chloroform, shaken for 30 seconds, centrifuged (3000 rpm, 5 minutes, room temperature) and the supernatant used to determine phage titers against the same isolate. Phage titers in plaque forming units [PFU]/mL were recorded initially and at 48 hours to assess for phage replication. To allow for phage resistant (phage insensitive) bacterial isolates to show plaques, clindamycin was added to the soft agar overlay.

S. aureus CI11 = experiment: Phage replication by titer; type: cell-based, Staphylococcus aureus; conditions: 48 hours incubation
Description: as §2, §3

S. aureus CI8 = experiment: Phage replication by titer; type: cell-based, Staphylococcus aureus; conditions: 48 hours incubation
Description: as §2, §3

[2] = system: S. aureus ATCC51650 and CI11; experiment: Dose-dependence of clindamycin in combination with phage J-Sa36 (OD600); type: cell-based, Staphylococcus aureus; conditions: with J-Sa36 MOI=0.2, 24 hours; ⅛th the MIC
Description: Initial screening was performed in 100 μl in 96 well plates, with follow up experiments in 10 mL culture volume. S. aureus strains were grown on 1.5% Tryptone Soya Agar (TSA) at 37° C. overnight. Single colonies were transferred to Tryptone Soya Broth (TSB) to generate a culture with a starting concentration of 5×10^5 CFU/ml. […] Antibiotics were added to the cultures at ½ MIC (according to the pretest MIC of antibiotics) if required. Optical density (OD) readings at 600 nm were recorded at 24 hours to assess the growth of bacteria co-inoculated with phage unless otherwise specified. Uninoculated, fresh media was included as a sterility control.

[3] = system: S. aureus ATCC51650 and CI11 biofilms; experiment: Biofilm viability, AlamarBlue assay; type: cell-based, Staphylococcus aureus
Description: Briefly, a 1.0 McFarland unit S. aureus culture suspended in 1:15 dilution in TSB was added to 96-well microtiter plates (Costar; Corning Incorporated, Corning, NY, United States of America). Plates were incubated for 48 hours at 37° C. on a rotating platform at 70 rpm (3D Gyratory Mixer; Ratek Instruments, Boronia, VIC, Australia) to allow biofilm formation followed by washing with phosphate-buffered saline. […] Wells were treated for 24 hours at 37° C. with gentle shaking. The AlamarBlue viability assay (Thermo Fisher Scientific, Waltham, MA, United States of America) was used as previously described (Richter K et al., editors. Mind “De GaPP”: in vitro efficacy of deferiprone and gallium-protoporphyrin against Staphylococcus aureus biofilms. International Forum of Allergy & Rhinology; 2016: Wiley Online Library to determine the anti-biofilm activity of the phage. Fluorescence was measured in a microplate reader (FLUOstar OPTIMA, BMG LABTECH, Offenburg, Germany) and the percent reduction of biofilm after treatment determined relative to untreated controls.

[4] = system: S. aureus ATCC51650 and CI11; experiment: Time-dependent interaction of phage J-Sa36 and clindamycin (OD600); type: cell-based, Staphylococcus aureus; conditions: ½ MIC clindamycin only or J-Sa36 (MOI 0.2) only
Description: OD600 readings were taken at addition of either phage or clindamycin and following the 24-hour incubation.
The total amount of phage J-Sa36 added into the culture at different time points was adjusted to maintain MOI=0.2, according to the number of bacteria measured via CFU counts at each time point.

`CCC[C@@H]1C[C@@H](C(=O)N[C@@H]([C@H]2O[C@H](SC)[C@H](O)[C@@H](O)[C@H]2O)[C@H](C)Cl)N(C)C1` [clindamycin] showed an MIC (S. aureus C330) of 0.2 µg/mL (≈ 0.471 µM), an MIC (S. aureus C43) of 0.2 µg/mL (≈ 0.471 µM) and an MIC (S. aureus C319) of 0.2 µg/mL (≈ 0.471 µM). For the same compound, the MIC (S. aureus ATCC25923) was 0.2 µg/mL (≈ 0.471 µM), the MIC (S. aureus C285) was 0.2 µg/mL (≈ 0.471 µM) and the “growth of S. aureus bacteria vs control, single agent” value [1] was “similar”. The “plaques from supernatant after ½ MIC clindamycin only” value (“plaques from supernatant” below) (S. aureus ATCC51650) was “produced no plaques”, the “plaques from supernatant” value (S. aureus CI11) was “produced no plaques” and the “plaques from supernatant” value (S. aureus CI8) was “produced no plaques”. For the same compound, the “lowest effective concentration of clindamycin required to facilitate phage J-Sa36 killing” value [2] was 0.025 µg/mL, the “reduction of clindamycin concentration required to significantly reduce biofilm viability by combination with phage” value [3] was “five” and the minimal effective concentration ([3]; Staphylococcus aureus, ATCC51650, 24 hours treatment, lower concentrations no significant effect, read-out: clindamycin alone: concentration significantly reducing viability of preformed biofilms) was no less than 0.5 µg/mL. For the same compound, the “bacterial viability at 24 hours, single agent” value [4] was “did not significantly affect bacterial viability”.
